Experimental data reported in the supplement of paper PMC10307832.

These cell lines were tested with Cc1nc(NC(=O)N2CCC[C@H]2C(N)=O)sc1-c1ccnc(C(C)(C)C(F)(F)F)c1 [Alpelisib] + C[C@@H](Oc1cc(-c2cnn(C3CCNCC3)c2)cnc1N)c1c(Cl)ccc(F)c1Cl [Crizotinib] (partner 1 µM) (assay: relative viability (nuclei count vs DMSO), 5 days (fraction); higher = more cells survive). Conditions: first compound 0.04 µM.
Summary of the method: (§1)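 Nuclei were stained with Hoechst during a one-step fixation (final 0.05% Triton X-100, 1% formaldehyde, 1 ug/ml Hoechst) carried out 5 days after dosing, then counted on 4× images. The cells, lung cancer lines in 1536-well plates, had been dosed by pin tool the day after seeding with one drug alone or a fixed anchor-drug dose plus five library-drug doses (not always all listed) in √10 steps. Relative viability is the nuclei count in treated wells divided by that in vehicle wells, and each value is the median of duplicate plates.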

Question: With NCI-H1666 as the cell line, how does the relative viability read?
Answer: The relative viability was 0.914.

Question: Which relative viability does the source give for RERF-LC-KJ here?
Answer: Its relative viability is 0.76.

Question: With NCI-H650 as the cell line, how does the relative viability read?
Answer: Its relative viability is 0.737.

Question: How did the relative viability turn out when NCI-H322M was run?
Answer: The relative viability was 0.797.

Question: With NCI-H596 as the cell line, how does the relative viability read?
Answer: The relative viability was 1.06.

Question: How did the relative viability turn out when 201T was run?
Answer: The relative viability was 0.985.

Question: How did the relative viability turn out when SK-MES-1 was run?
Answer: The relative viability was 1.03.

Question: Which relative viability does the source give for NCI-H441 here?
Answer: The relative viability was 0.743.

Question: Which relative viability does the source give for HCC-78 here?
Answer: The relative viability was 0.289.

Same assay, conditions: first compound 0.1265 µM

Question: NCI-H1666 was tested. Which relative viability did it give?
Answer: The relative viability was 0.87.

Question: For RERF-LC-KJ, which relative viability is on record?
Answer: Its relative viability is 0.77.

Question: How did the relative viability turn out when NCI-H650 was run?
Answer: The relative viability was 0.693.

Question: For NCI-H322M, which relative viability is on record?
Answer: The relative viability was 0.955.

Question: NCI-H596 was tested. Which relative viability did it give?
Answer: The relative viability was 1.01.

Question: With 201T as the cell line, how does the relative viability read?
Answer: Its relative viability is 1.

Question: SK-MES-1 was tested. Which relative viability did it give?
Answer: The relative viability was 0.875.

Question: Which relative viability does the source give for NCI-H441 here?
Answer: The relative viability was 0.567.

Question: With HCC-78 as the cell line, how does the relative viability read?
Answer: Its relative viability is 0.294.

Same assay, conditions: first compound 0.4 µM

Question: NCI-H1666 was tested. Which relative viability did it give?
Answer: The relative viability was 0.932.

Question: With RERF-LC-KJ as the cell line, how does the relative viability read?
Answer: The relative viability was 0.83.

Question: NCI-H650 was tested. Which relative viability did it give?
Answer: Its relative viability is 0.88.

Question: For NCI-H322M, which relative viability is on record?
Answer: The relative viability was 0.892.

Question: Which relative viability does the source give for NCI-H596 here?
Answer: The relative viability was 0.841.

Question: Which relative viability does the source give for 201T here?
Answer: Its relative viability is 1.07.

Question: How did the relative viability turn out when SK-MES-1 was run?
Answer: The relative viability was 0.968.

Question: How did the relative viability turn out when NCI-H441 was run?
Answer: Its relative viability is 0.746.

Question: For HCC-78, which relative viability is on record?
Answer: Its relative viability is 0.318.

Same assay, conditions: first compound 1.265 µM

Question: How did the relative viability turn out when NCI-H1666 was run?
Answer: The relative viability was 0.765.

Question: For RERF-LC-KJ, which relative viability is on record?
Answer: The relative viability was 0.787.

Question: For NCI-H650, which relative viability is on record?
Answer: The relative viability was 0.478.

Question: NCI-H322M was tested. Which relative viability did it give?
Answer: Its relative viability is 0.708.

Question: NCI-H596 was tested. Which relative viability did it give?
Answer: The relative viability was 0.616.

Question: How did the relative viability turn out when 201T was run?
Answer: The relative viability was 0.98.

Question: How did the relative viability turn out when SK-MES-1 was run?
Answer: Its relative viability is 0.83.

Question: With NCI-H441 as the cell line, how does the relative viability read?
Answer: Its relative viability is 0.432.

Question: HCC-78 was tested. Which relative viability did it give?
Answer: Its relative viability is 0.234.

Same assay, conditions: first compound 4 µM

Question: NCI-H1666 was tested. Which relative viability did it give?
Answer: The relative viability was 0.747.

Question: RERF-LC-KJ was tested. Which relative viability did it give?
Answer: Its relative viability is 0.741.

Question: For NCI-H650, which relative viability is on record?
Answer: Its relative viability is 0.546.

Question: NCI-H322M was tested. Which relative viability did it give?
Answer: The relative viability was 0.693.

Question: How did the relative viability turn out when NCI-H596 was run?
Answer: The relative viability was 0.406.

Question: With 201T as the cell line, how does the relative viability read?
Answer: The relative viability was 0.936.

Question: Which relative viability does the source give for SK-MES-1 here?
Answer: The relative viability was 0.67.

Question: Which relative viability does the source give for NCI-H441 here?
Answer: Its relative viability is 0.435.

Question: With HCC-78 as the cell line, how does the relative viability read?
Answer: Its relative viability is 0.242.

The cell lines below were run with Cc1nc(NC(=O)N2CCC[C@H]2C(N)=O)sc1-c1ccnc(C(C)(C)C(F)(F)F)c1 [Alpelisib] + Cc1nc(Nc2ncc(C(=O)Nc3c(C)cccc3Cl)s2)cc(N2CCN(CCO)CC2)n1 [Dasatinib] (partner 0.075 µM) in the same assay as above. Conditions: first compound 0.04 µM.
Summary of the method: as §1

Question: NCI-H1666 was tested. Which relative viability did it give?
Answer: Its relative viability is 0.851.

Question: How did the relative viability turn out when RERF-LC-KJ was run?
Answer: Its relative viability is 0.766.

Question: With NCI-H650 as the cell line, how does the relative viability read?
Answer: The relative viability was 0.417.

Question: NCI-H322M was tested. Which relative viability did it give?
Answer: Its relative viability is 0.225.

Question: Which relative viability does the source give for NCI-H596 here?
Answer: The relative viability was 0.564.

Question: For 201T, which relative viability is on record?
Answer: The relative viability was 0.561.

Question: Which relative viability does the source give for SK-MES-1 here?
Answer: Its relative viability is 0.332.

Question: For NCI-H441, which relative viability is on record?
Answer: The relative viability was 0.525.

Question: HCC-78 was tested. Which relative viability did it give?
Answer: The relative viability was 0.367.

Same assay, conditions: first compound 0.1265 µM

Question: Which relative viability does the source give for NCI-H1666 here?
Answer: Its relative viability is 0.764.

Question: RERF-LC-KJ was tested. Which relative viability did it give?
Answer: Its relative viability is 0.733.

Question: For NCI-H650, which relative viability is on record?
Answer: Its relative viability is 0.38.

Question: Which relative viability does the source give for NCI-H322M here?
Answer: Its relative viability is 0.223.

Question: For NCI-H596, which relative viability is on record?
Answer: The relative viability was 0.67.

Question: 201T was tested. Which relative viability did it give?
Answer: Its relative viability is 0.487.

Question: With SK-MES-1 as the cell line, how does the relative viability read?
Answer: The relative viability was 0.334.

Question: NCI-H441 was tested. Which relative viability did it give?
Answer: The relative viability was 0.72.

Question: How did the relative viability turn out when HCC-78 was run?
Answer: The relative viability was 0.326.

Same assay, conditions: first compound 0.4 µM

Question: How did the relative viability turn out when NCI-H1666 was run?
Answer: Its relative viability is 0.792.

Question: RERF-LC-KJ was tested. Which relative viability did it give?
Answer: Its relative viability is 0.758.

Question: With NCI-H650 as the cell line, how does the relative viability read?
Answer: The relative viability was 0.449.

Question: NCI-H322M was tested. Which relative viability did it give?
Answer: Its relative viability is 0.257.

Question: For NCI-H596, which relative viability is on record?
Answer: Its relative viability is 0.578.

Question: Which relative viability does the source give for 201T here?
Answer: The relative viability was 0.541.

Question: For SK-MES-1, which relative viability is on record?
Answer: Its relative viability is 0.438.

Question: Which relative viability does the source give for NCI-H441 here?
Answer: The relative viability was 0.562.

Question: HCC-78 was tested. Which relative viability did it give?
Answer: The relative viability was 0.357.

Same assay, conditions: first compound 1.265 µM

Question: For NCI-H1666, which relative viability is on record?
Answer: Its relative viability is 0.698.

Question: How did the relative viability turn out when RERF-LC-KJ was run?
Answer: The relative viability was 0.475.

Question: With NCI-H650 as the cell line, how does the relative viability read?
Answer: The relative viability was 0.395.

Question: For NCI-H322M, which relative viability is on record?
Answer: The relative viability was 0.253.

Question: Which relative viability does the source give for NCI-H596 here?
Answer: Its relative viability is 0.337.

Question: 201T was tested. Which relative viability did it give?
Answer: The relative viability was 0.434.

Question: With SK-MES-1 as the cell line, how does the relative viability read?
Answer: The relative viability was 0.17.

Question: With NCI-H441 as the cell line, how does the relative viability read?
Answer: Its relative viability is 0.311.

Question: Which relative viability does the source give for HCC-78 here?
Answer: The relative viability was 0.366.

Same assay, conditions: first compound 4 µM

Question: How did the relative viability turn out when NCI-H1666 was run?
Answer: Its relative viability is 0.666.

Question: RERF-LC-KJ was tested. Which relative viability did it give?
Answer: The relative viability was 0.541.

Question: How did the relative viability turn out when NCI-H650 was run?
Answer: Its relative viability is 0.288.

Question: Which relative viability does the source give for NCI-H322M here?
Answer: The relative viability was 0.273.

Question: With NCI-H596 as the cell line, how does the relative viability read?
Answer: The relative viability was 0.385.

Question: Which relative viability does the source give for 201T here?
Answer: The relative viability was 0.359.

Question: Which relative viability does the source give for SK-MES-1 here?
Answer: Its relative viability is 0.191.

Question: How did the relative viability turn out when NCI-H441 was run?
Answer: Its relative viability is 0.358.

Question: HCC-78 was tested. Which relative viability did it give?
Answer: The relative viability was 0.314.
